Measured values published in BindingDB's records for patent US10550105 (Ribon Therapeutics, 2020).

target: T1, Protein mono-ADP-ribosyltransferase TIPARP (Homo sapiens, UniProt Q7Z3E1); assay: Enzymatic Assay for Inhibition of PARP7
T1 sequence (Q7Z3E1 whole entry): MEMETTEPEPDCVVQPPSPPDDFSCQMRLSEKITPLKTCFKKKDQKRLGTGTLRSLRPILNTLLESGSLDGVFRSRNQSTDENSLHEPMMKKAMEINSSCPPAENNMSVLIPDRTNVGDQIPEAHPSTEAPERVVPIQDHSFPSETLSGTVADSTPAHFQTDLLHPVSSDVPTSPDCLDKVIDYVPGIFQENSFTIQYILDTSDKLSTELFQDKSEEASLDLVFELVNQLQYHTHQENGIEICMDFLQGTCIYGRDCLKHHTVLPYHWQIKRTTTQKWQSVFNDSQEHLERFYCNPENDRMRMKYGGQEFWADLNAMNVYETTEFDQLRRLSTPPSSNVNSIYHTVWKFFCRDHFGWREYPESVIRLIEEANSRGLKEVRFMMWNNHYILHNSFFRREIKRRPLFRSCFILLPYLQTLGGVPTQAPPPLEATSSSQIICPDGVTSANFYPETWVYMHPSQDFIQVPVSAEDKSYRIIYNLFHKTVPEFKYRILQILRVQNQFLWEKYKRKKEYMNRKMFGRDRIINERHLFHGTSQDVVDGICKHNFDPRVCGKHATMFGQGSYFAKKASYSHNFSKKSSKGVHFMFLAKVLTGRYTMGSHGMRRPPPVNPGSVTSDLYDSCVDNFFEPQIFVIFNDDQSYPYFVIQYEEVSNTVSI
Method: Displacement of Probe A, a biotinylated probe binding to the TIPARP active site, was measured using a time-resolved fluorescence energy transfer (TR-FRET) assay. 20 nL of a dose response curve of each test compound was spotted in black 384-well polystyrene proxiplates (Perkin Elmer) using a Mosquito (TTP Labtech). Reactions were performed in a 8 μL volume by adding 6 μL of TIPARP and Probe A in assay buffer (20 mM HEPES pH=8, 100 mM NaCl, 0.1% bovine serum albumin, 2 mM DTT and 0.002% Tween20), incubating with test compound at 25° C. for 30 min, then adding 2 μL of ULight-anti 6×His and LANCE Eu-W1024 labeled streptavidin (Perkin Elmer). The final concentrations of TIPARP and Probe A were 6 nM and 2 nM, respectively. […] The Hill Coefficient is normally allowed to float but may also be fixed at 1 in a 3-parameter fit. Y is the % inhibition and x is the compound concentration.

`N#Cc1ccc(N2CCN(C(=O)/C=C\COC[C@H]3c4ccccc4CN3c3cn[nH]c(=O)c3C(F)(F)F)CC2)nc1` [US10550105, Example 79C] and `N#Cc1ccc(N2CCN(C(=O)/C=C\COC[C@@H]3c4ccccc4CN3c3cn[nH]c(=O)c3C(F)(F)F)CC2)nc1` [US10550105, Example 79D] cannot be ordered by IC50: < 100 nM for the first, < 100 nM for the second.

Compared with `O=C(c1cncc(OC[C@H]2c3ccccc3CN2c2cn[nH]c(=O)c2C(F)(F)F)c1)N1CCn2c(nnc2C(F)(F)F)C1` [US10550105, Example 372], `O=C(c1cncc(OCC2c3ccccc3CN2c2cn[nH]c(=O)c2C(F)(F)F)c1)N1CCn2ncnc2C1` (stereo not given) [US10550105, Example 398] is lower in IC50: > 1000 nM for the first, < 100 nM for the second.

With `C[C@@H](OCCC(=O)N1CCN(c2ccc(C#N)cn2)CC1)[C@@H]1CCCN1c1cn[nH]c(=O)c1C(F)(F)F` [US10550105, Example 140B] the IC50 was “in the range around 550 nM”.
